Activity calls are given as the source filed them. The calls are words filed in the database; no cut-off is given here.
Key:
Assay type in all cases: functional
[1] = tested on: NCI-H522; test: Cytotoxicity against human NCI-H522 cells at 10 uM after 48 hrs by SRB assay; details: NCI-H522, 48 h, read-out: GI
[2] = Cytotoxicity against human OVCAR3 cells at 10 uM after 48 hrs by SRB assay; details: OVCAR-3, 48 h, read-out: GI
[3] = tested on: T47D; test: Cytotoxicity against human T47D cells at 10 uM after 48 hrs by SRB assay; details: read-out: GI
[4] = tested on: A498; test: Cytotoxicity against human A498 cells at 10 uM after 48 hrs by SRB assay; details: A498, 48 h, read-out: GI
[5] = Cytotoxicity against human UO31 cells at 10 uM after 48 hrs by SRB assay; details: UO-31, 48 h, read-out: GI
[6] = tested on: MCF7; test: Cytotoxicity against human MCF7 cells at 10 uM after 48 hrs by SRB assay; details: MCF7, 48 h, read-out: GI
[7] = Cytotoxicity against human SF295 cells at 10 uM after 48 hrs by SRB assay; details: SF-295, 48 h, read-out: GI
[8] = Cytotoxicity against human HOP62 cells at 10 uM after 48 hrs by SRB assay; details: HOP-62, 48 h, read-out: GI
[9] = Cytotoxicity against human SKOV3 cells at 10 uM after 48 hrs by SRB assay; details: SK-OV-3, 48 h, read-out: GI
[10] = tested on: SR; test: Cytotoxicity against human SR cells at 10 uM after 48 hrs by SRB assay
[11] = tested on: NCI-H322M; test: Cytotoxicity against human NCI-H322M cells at 10 uM after 48 hrs by SRB assay; details: read-out: GI
[12] = Cytotoxicity against human Caki1 cells at 10 uM after 48 hrs by SRB assay; details: CAKI-1, 48 h, read-out: GI
[13] = tested on: ACHN; test: Cytotoxicity against human ACHN cells at 10 uM after 48 hrs by SRB assay; details: read-out: GI
[14] = Cytotoxicity against human LOXIMVI cells at 10 uM after 48 hrs by SRB assay; details: LOX IMVI, read-out: GI
[15] = Cytotoxicity against human BT549 cells at 10 uM after 48 hrs by SRB assay; details: BT-549, 48 h, read-out: GI
[16] = Cytotoxicity against human SNB75 cells at 10 uM after 48 hrs by SRB assay; details: SNB-75, 48 h, read-out: GI
[17] = tested on: SK-MEL-5; test: Cytotoxicity against human SK-MEL-5 cells at 10 uM after 48 hrs by SRB assay; details: SK-MEL-5, 48 h, read-out: GI
[18] = tested on: SK-MEL-28; test: Cytotoxicity against human SK-MEL-28 cells at 10 uM after 48 hrs by SRB assay
[19] = tested on: A549; test: Cytotoxicity against human A549 cells at 10 uM after 48 hrs by SRB assay; details: A549, 48 h, read-out: GI
[20] = Cytotoxicity against human SF268 cells at 10 uM after 48 hrs by SRB assay; details: SF-268, 48 h, read-out: GI
[21] = Cytotoxicity against human HCT116 cells at 10 uM after 48 hrs by SRB assay; details: HCT-116, 48 h, read-out: GI
[22] = tested on: KM12; test: Cytotoxicity against human KM12 cells at 10 uM after 48 hrs by SRB assay; details: KM12, 48 h, read-out: GI
[23] = tested on: HCT-15; test: Cytotoxicity against human HCT15 cells at 10 uM after 48 hrs by SRB assay
[24] = tested on: MOLT-4; test: Cytotoxicity against human MOLT4 cells at 10 uM after 48 hrs by SRB assay
[25] = Cytotoxicity against human RXF393 cells at 10 uM after 48 hrs by SRB assay; details: RXF 393, 48 h, read-out: GI
[26] = tested on: MDA-MB-231; test: Cytotoxicity against human MDA-MB-231 cells at 10 uM after 48 hrs by SRB assay; details: MDA-MB-231, 48 h, read-out: GI
[27] = tested on: SN12C; test: Cytotoxicity against human SN12C cells at 10 uM after 48 hrs by SRB assay; details: read-out: GI
[28] = Cytotoxicity against human HCC2998 cells at 10 uM after 48 hrs by SRB assay; details: HCC 2998, 48 h, read-out: GI
[29] = tested on: MDA-MB-435; test: Cytotoxicity against human MDA-MB-435 cells at 10 uM after 48 hrs by SRB assay; details: MDA-MB-435, 48 h, read-out: GI
[30] = Cytotoxicity against human COLO205 cells at 10 uM after 48 hrs by SRB assay; details: COLO 205, 48 h, read-out: GI
[31] = tested on: OVCAR-5; test: Cytotoxicity against human OVCAR5 cells at 10 uM after 48 hrs by SRB assay
[32] = tested on: NCI-H460; test: Cytotoxicity against human NCI-H460 cells at 10 uM after 48 hrs by SRB assay; details: NCI-H460, 48 h, read-out: GI
[33] = tested on: 786-0; test: Cytotoxicity against human 786-0 cells at 10 uM after 48 hrs by SRB assay; details: 786-0, 48 h, read-out: GI
[34] = tested on: HL-60(TB); test: Cytotoxicity against human HL-60(TB) cells at 10 uM after 48 hrs by SRB assay
[35] = tested on: Hs-578T; test: Cytotoxicity against human Hs 578T cells at 10 uM after 48 hrs by SRB assay
[36] = Cytotoxicity against human SW620 cells at 10 uM after 48 hrs by SRB assay; details: SW-620, 48 h, read-out: GI
[37] = Cytotoxicity against human OVCAR8 cells at 10 uM after 48 hrs by SRB assay; details: OVCAR-8, 48 h, read-out: GI
[38] = tested on: MDA-MB-468; test: Cytotoxicity against human MDA-MB-468 cells at 10 uM after 48 hrs by SRB assay; details: MDA-MB-468, 48 h, read-out: GI
[39] = tested on: K562; test: Cytotoxicity against human K562 cells at 10 uM after 48 hrs by SRB assay
[40] = tested on: HT-29; test: Cytotoxicity against human HT-29 cells at 10 uM after 48 hrs by SRB assay; details: HT-29, 48 h, read-out: GI
[41] = tested on: M14; test: Cytotoxicity against human M14 cells at 10 uM after 48 hrs by SRB assay; details: M14, 48 h, read-out: GI
[42] = tested on: Malme-3M; test: Cytotoxicity against human MALME-3M cells at 10 uM after 48 hrs by SRB assay; details: read-out: GI
[43] = Cytotoxicity against human OVCAR4 cells at 10 uM after 48 hrs by SRB assay; details: OVCAR-4, 48 h, read-out: GI
[44] = tested on: CCRF-CEM; test: Cytotoxicity against human CCRF-CEM cells at 10 uM after 48 hrs by SRB assay
[45] = Cytotoxicity against human DU145 cells at 10 uM after 48 hrs by SRB assay; details: DU-145, 48 h, read-out: GI
[46] = tested on: U-251; test: Cytotoxicity against human U251 cells at 10 uM after 48 hrs by SRB assay; details: U-251, 48 h, read-out: GI
[47] = tested on: NCI-H226; test: Cytotoxicity against human NCI-H226 cells at 10 uM after 48 hrs by SRB assay; details: NCI-H226, 48 h, read-out: GI
[48] = tested on: NCI/ADR-RES; test: Cytotoxicity against human NCI-ADR-RES cells at 10 uM after 48 hrs by SRB assay
[49] = Cytotoxicity against human SNB19 cells at 10 uM after 48 hrs by SRB assay; details: SNB-19, 48 h, read-out: GI
[50] = tested on: TK-10; test: Cytotoxicity against human TK10 cells at 10 uM after 48 hrs by SRB assay
[51] = Cytotoxicity against human IGROV1 cells at 10 uM after 48 hrs by SRB assay; details: IGROV-1, 48 h, read-out: GI
[52] = Cytotoxicity against human HOP92 cells at 10 uM after 48 hrs by SRB assay; details: HOP-92, 48 h, read-out: GI
[53] = Cytotoxicity against human SF539 cells at 10 uM after 48 hrs by SRB assay; details: SF-539, 48 h, read-out: GI
[54] = Cytotoxicity against human UACC257 cells at 10 uM after 48 hrs by SRB assay; details: UACC-257, 48 h, read-out: GI
[55] = tested on: RPMI-8226; test: Cytotoxicity against human RPMI8226 cells at 10 uM after 48 hrs by SRB assay
[56] = tested on: SK-MEL-2; test: Cytotoxicity against human SK-MEL-2 cells at 10 uM after 48 hrs by SRB assay; details: SK-MEL-2, 48 h, read-out: GI

Compound: Cc1nc2cc(Nc3nc(NCCN)nc(Nc4ccc(F)cc4)n3)ccc2n1Cc1ccccc1
- inhibition of growth at 10 µM [1]: 14.1%
- inhibition of growth at 10 µM [2]: 13.3%
- inhibition of growth at 10 µM [3]: 30.9%
- inhibition of growth at 10 µM [4]: 32.6%
- inhibition of growth at 10 µM [5]: 10.7%
- inhibition of growth at 10 µM [6]: 31.2%
- inhibition of growth at 10 µM [7]: 20.2%
- inhibition of growth at 10 µM [8]: 20.9%
- inhibition of growth at 10 µM [9]: 4.49%
- growth inhibition (GI) [10]: Active
- inhibition of growth at 10 µM [11]: 0.32%
- inhibition of growth at 10 µM [12]: 5.83%
- inhibition of growth at 10 µM [13]: 3.22%
- inhibition of growth at 10 µM [14]: 41.8%
- inhibition of growth at 10 µM [15]: 9.96%
- inhibition of growth at 10 µM [16]: 15.8%
- inhibition of growth at 10 µM [17]: 13.4%
- growth inhibition (GI) [18]: inactive
- inhibition of growth at 10 µM [19]: 16.1%
- inhibition of growth at 10 µM [20]: 28.2%
- inhibition of growth at 10 µM [21]: 39.7%
- inhibition of growth at 10 µM [22]: 29.4%
- growth inhibition (GI) [23]: inactive
- growth inhibition (GI) [24]: Active
- inhibition of growth at 10 µM [25]: 28%
- inhibition of growth at 10 µM [26]: 39.6%
- inhibition of growth at 10 µM [27]: 14.9%
- inhibition of growth at 10 µM [28]: 29.4%
- inhibition of growth at 10 µM [29]: 19.6%
- inhibition of growth at 10 µM [30]: 18%
- growth inhibition (GI) [31]: inactive
- inhibition of growth at 10 µM [32]: 17.4%
- inhibition of growth at 10 µM [33]: 17.6%
- growth inhibition (GI) [34]: Active
- growth inhibition (GI) [35]: inactive
- inhibition of growth at 10 µM [36]: 26.1%
- inhibition of growth at 10 µM [37]: 10.9%
- inhibition of growth at 10 µM [38]: 26.8%
- growth inhibition (GI) [39]: Active
- inhibition of growth at 10 µM [40]: 64.9%
- inhibition of growth at 10 µM [41]: 18.4%
- inhibition of growth at 10 µM [42]: 6.46%
- inhibition of growth at 10 µM [43]: 23%
- growth inhibition (GI) [44]: Active
- inhibition of growth at 10 µM [45]: 17.8%
- inhibition of growth at 10 µM [46]: 22.6%
- inhibition of growth at 10 µM [47]: 4.61%
- growth inhibition (GI) [48]: inactive
- inhibition of growth at 10 µM [49]: 8.37%
- growth inhibition (GI) [50]: inactive
- inhibition of growth at 10 µM [51]: 18.6%
- inhibition of growth at 10 µM [52]: 51.5%
- inhibition of growth at 10 µM [53]: 3.98%
- inhibition of growth at 10 µM [54]: 9.53%
- growth inhibition (GI) [55]: Active
- inhibition of growth at 10 µM [56]: 9.54%

Source: ChEMBL document CHEMBL3745645, “Synthesis, in vitro antitumor activity, dihydrofolate reductase inhibition, DNA intercalation and structure-activity relationship studies of 1,3,5-triazine analogues” (Bioorg Med Chem Lett, 2016)
